For one test, the target named is T1, sRAGE binding to S100b (Homo sapiens, UniProt Q15109).
T1 construct: extracellular domain can be isolated by proteolysis of RAGE to generate soluble RAGE (sRAGE) comprised of the V and C domains
Briefly: RAGE binding assay (ELISA), S100b as the RAGE ligand. To be noted: compounds tested in hydrochloride salt form, concentration at which 50% signal has been inhibited. On the procedure: (§1) The following assay method may be used to identify compounds of Formula (I) or pharmaceutically acceptable salts thereof which are useful as inhibitors of binding of physiological RAGE ligands, such as S100b and β-amyloid, to RAGE.
(§2) S100b, β-amyloid, or CML (500 ng/100 μL/well) in 100 mM sodium bicarbonate/sodium carbonate buffer (pH 9.8) is loaded onto the wells of a NUNC Maxisorp flat bottom 96-well microtitre plate. The plate is incubated at 4° C. overnight. The wells are aspirated and treated with 50 mM imidazole buffer saline (pH 7.2) (with 5 mM CaCl2/MgCl2) containing 1% bovine serum albumin (BSA) (300 μL/well) for 1 h at RT. The wells are aspirated.
(§3) Test compounds are dissolved in nanopure water (concentration: 10-100 μM). DMSO may be used as co-solvent. 25 μL of test compound solution in 4% DMSO is added, along with 75 μL sRAGE (6 nM FAC) to each well and samples are incubated for 1 h at 37° C. The wells are washed several times with 155 mM NaCl pH 7.2 buffer saline and are soaked for several seconds between each wash.
(§4) Non-radioactive detection is performed by adding:
(§5) 10 μL Biotinylated goat F(ab′)2 Anti-mouse IgG. (8.0×10-4 mg/mL, FAC), 5 μL Alk-phos-Streptavidin (3×10-3 mg/mL FAC), 0.42 μL per 5 mL Monoclonal antibody for sRAGE (FAC 6.0×10-3 mg/mL) to 5 mL 50 mM imidazole buffer saline (pH 7.2) containing 0.2% bovine serum albumin and 5 mM CaCl2. The mixture is incubated for 30 minutes at RT.
(§6) 100 μL of complex is added to each well and incubation is allowed to proceed at rt for 1 h. Wells are washed several times with wash buffer and soaked several seconds between each wash. 100 μL 1 mg/mL (pNPP) in 1 M diethanolamine (pH adjusted to 9.8 with HCl) is added. Color is allowed to develop in the dark for 30 min to 1 h at rt. The reaction is quenched with 10 μL of stop solution (0.5-1.0 N NaOH in 50% ethanol) and the absorbance is measured spectrophotometrically with a microplate reader at 405 nm.
(§7) The IC50 (μM) value in the ELISA assay represents the concentration of compound at which 50% signal has been inhibited.

The target in test [1] is T2, sRAGE binding to β-amyloid (Homo sapiens, UniProt Q15109).
T2 construct: extracellular domain can be isolated by proteolysis of RAGE to generate soluble RAGE (sRAGE) comprised of the V and C domains
As to the kind of experiment: RAGE binding assay (ELISA), β-amyloid as the RAGE ligand. The following applies: compounds tested in hydrochloride salt form, concentration at which 50% signal has been inhibited. The procedure:
as §1, §2, §3, §4, §5, §6, §7

Structures can show the parent of a compound that is named as a salt.

T1 sequence (Q15109 23-342 limits assumed): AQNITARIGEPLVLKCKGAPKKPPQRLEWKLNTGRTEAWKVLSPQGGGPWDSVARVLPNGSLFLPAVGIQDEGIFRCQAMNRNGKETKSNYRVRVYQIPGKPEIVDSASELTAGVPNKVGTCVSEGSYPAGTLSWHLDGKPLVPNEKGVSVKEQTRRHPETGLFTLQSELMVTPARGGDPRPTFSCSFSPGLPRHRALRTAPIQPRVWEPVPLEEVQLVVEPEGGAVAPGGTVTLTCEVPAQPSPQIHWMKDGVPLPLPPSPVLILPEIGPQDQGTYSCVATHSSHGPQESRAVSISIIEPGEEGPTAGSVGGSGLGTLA
T2 sequence (Q15109 23-342 limits assumed): as above

Regarding `CCCCc1nnc(OCCCN2CCOCC2)cc1-c1ccc(OCc2ccccc2)cc1` [Example 8, 4-{3-[5-(4-Benzyloxy-phenyl)-6-butyl-pyridazin-3-yloxy]-propyl}-morpholine dihydrochloride], the values for the IC50 (on sRAGE binding to S100b; in test [1]) were 4840 nM and 3720 nM, respectively.
For `CCCCc1nnc(OCC2CN(C)C2)cc1-c1ccc(OCc2ccccc2)cc1` [Example 9, 4-(4-Benzyloxy-phenyl)-3-butyl-6-(1-methyl-azetidin-3-ylmethoxy)-pyridazine dihydrochloride], in that order: 2700 nM and 3140 nM.
In the same order, the values of `CCCCc1nnc(OCC2CCN(C)C2)cc1-c1ccc(OCc2ccccc2)cc1` (centres unmarked) [Example 10, 4-(4-Benzyloxy-phenyl)-3-butyl-6-(1-methyl-pyrrolidin-3-ylmethoxy)-pyridazine dihydrochloride] are 1520 nM and 1630 nM.
Turning to `CCCCc1nnc(OCC2(O)CCN(C)CC2)cc1-c1ccc(OCc2ccccc2)cc1` [Example 11, 4-[5-(4-Benzyloxy-phenyl)-6-butyl-pyridazin-3-yloxymethyl]-1-methyl-piperidin-4-ol dihydrochloride], the IC50 came to 5740 nM on sRAGE binding to S100b and 3230 nM in test [1].
In the same order, the values of `CCCc1nnc(OC2CCN(C)CC2)cc1-c1ccc(OCc2ccccc2)cc1` [Example 12, 4-(4-Benzyloxy-phenyl)-6-(1-methyl-piperidin-4-yloxy)-3-propyl-pyridazine dihydrochloride] are 1190 nM and 1540 nM.
As to `CN1CCC(Oc2cc(-c3ccc(OCc4ccccc4)cc3)c(C(F)(F)F)nn2)CC1` [Example 13, 4-(4-Benzyloxy-phenyl)-6-(1-methyl-piperidin-4-yloxy)-3-trifluoromethyl-pyridazine dihydrochloride], the IC50 at sRAGE binding to S100b was determined as 2570 nM; in test [1], 2620 nM.
In the same order, the values of `CCCCc1nnc(OC2CCN(CCC(=O)OCC)CC2)cc1-c1ccc(OC2CCCCC2)cc1` [Example 15, 3-{4-[6-Butyl-5-(4-cyclohexyloxy-phenyl)-pyridazin-3-yloxy]-piperidin-1-yl}-propionic acid ethyl ester dihydrochloride] are 640 nM and 660 nM.
In the same order, the values of `CCCCc1nnc(OC2CCN(CCC(=O)N(C)C)CC2)cc1-c1ccc(OC2CCCCC2)cc1` [Example 16, 3-{4-[6-Butyl-5-(4-cyclohexyloxy-phenyl)-pyridazin-3-yloxy]-piperidin-1-yl}-N,N-dimethyl-propionamide dihydrochloride] are 2170 nM and 2070 nM.
For `CCCCc1nnc(OC2CCN(CCO)CC2)cc1-c1ccc(OC2CCCCC2)cc1` [Example 17, 2-{4-[6-Butyl-5-(4-cyclohexyloxy-phenyl)-pyridazin-3-yloxy]-piperidin-1-yl}-ethanol dihydrochloride], in that order: 810 nM and 820 nM.
In the case of `CCCCc1nnc(OC2CCN(CCC3OCCCO3)CC2)cc1-c1ccc(OC2CCCCC2)cc1` [Example 18, 3-Butyl-4-(4-cyclohexyloxy-phenyl)-6-[1-(2-[1,3]dioxan-2-yl-ethyl)-piperidin-4-yloxy]-pyridazine dihydrochloride], the IC50 is 830 nM at sRAGE binding to S100b and 600 nM in test [1].
On to `CCCCc1nnc(OC2CCN(C)CC2)cc1-c1ccc(OC2CCC(F)(F)CC2)cc1` [Example 19, 3-Butyl-4-[4-(4,4-difluoro-cyclohexyloxy)-phenyl]-6-(1-methyl-piperidin-4-yloxy)-pyridazine dihydrochloride], for which the IC50 on sRAGE binding to S100b is 640 nM; in test [1], 870 nM.
For `CCCCc1nnc(OC2CCN(CCc3nnc(C)o3)CC2)cc1-c1ccc(OC2CCCCC2)cc1` [Example 20, 3-Butyl-4-(4-cyclohexyloxy-phenyl)-6-{1-[2-(5-methyl-[1,3,4]oxadiazol-2-yl)-ethyl]-piperidin-4-yloxy}-pyridazine dihydrochloride], in that order: 1460 nM and 2230 nM.
In the same order, the values of `CCCCc1nnc(OC2CCN(CCc3nnn(C)n3)CC2)cc1-c1ccc(OC2CCCCC2)cc1` [Example 21, 3-Butyl-4-(4-cyclohexyloxy-phenyl)-6-{1-[2-(2-methyl-2H-tetrazol-5-yl)-ethyl]-piperidin-4-yloxy}-pyridazine dihydrochloride] are 1340 nM and 1530 nM.
For `CCCCc1nnc(OC2CCN(CC(C)(C)O)CC2)cc1-c1ccc(OC2CCCCC2)cc1` [Example 22, 1-{4-[6-Butyl-5-(4-cyclohexyloxy-phenyl)-pyridazin-3-yloxy]-piperidin-1-yl}-2-methyl-propan-2-ol dihydrochloride], in that order: 1380 nM and 1120 nM.
For the molecule `CCCCc1nnc(OC2CCN(CCOC)CC2)cc1-c1ccc(OC2CCCCC2)cc1` [Example 23, 3-Butyl-4-(4-cyclohexyloxy-phenyl)-6-[1-(2-methoxy-ethyl)-piperidin-4-yloxy]-pyridazine dihydrochloride], the results for the IC50 (on sRAGE binding to S100b; in test [1]) were 780 nM and 1110 nM, respectively.
In the same order, the values of `CCCCc1nnc(OC2CN3CCC2CC3)cc1-c1ccc(OC2CCCCC2)cc1` (centres unmarked) [Example 26, 3-[6-Butyl-5-(4-cyclohexyloxy-phenyl)-pyridazin-3-yloxy]-1-azabicyclo[2.2.2]octane dihydrochloride] are 2080 nM and 1900 nM.
For `CCCCc1nnc(O[C@H]2C[C@H]3CC[C@@H](C2)N3C)cc1-c1ccc(OC2CCCCC2)cc1` [Example 27, endo-3-[6-Butyl-5-(4-cyclohexyloxy-phenyl)-pyridazin-3-yloxy]-8-methyl-8-aza-bicyclo[3.2.1]octane dihydrochloride], in that order: 2690 nM and 2520 nM.
In the same order, the values of `CCCCc1nnc(OC[C@@H]2CCCN3CCCC[C@H]23)cc1-c1ccc(OC2CCCCC2)cc1` [Example 28, (1R,9aR)-1-[6-Butyl-5-(4-cyclohexyloxy-phenyl)-pyridazin-3-yloxymethyl]-octahydroquinolizine dihydrochloride] are 1750 nM and 1660 nM.
For the molecule `CCCCc1nnc(O[C@@H]2CCN(C)C2)cc1-c1ccc(OC2CCCCC2)cc1` [Example 29, 3-Butyl-4-(4-cyclohexyloxy-phenyl)-6-((R)-1-methyl-pyrrolidin-3-yloxy)-pyridazine dihydrochloride], the IC50 stood at 1720 nM on sRAGE binding to S100b and 2360 nM in test [1].
In the same order, the values of `CCCCc1nnc(O[C@H]2CCN(C)C2)cc1-c1ccc(OC2CCCCC2)cc1` [Example 30, 3-Butyl-4-(4-cyclohexyloxy-phenyl)-6-((S)-1-methyl-pyrrolidin-3-yloxy)-pyridazine dihydrochloride] are 1820 nM and 2590 nM.
Regarding `CCCCc1nnc(O[C@H]2CC3C[C@@H](O)C(C2)N3C)cc1-c1ccc(OC2CCCCC2)cc1` (stereo partly drawn) [Example 31, (3S,6R)-3-[6-Butyl-5-(4-cyclohexyloxy-phenyl)-pyridazin-3-yloxy]-8-methyl-8-aza-bicyclo[3.2.1]octan-6-ol dihydrochloride], the IC50 at sRAGE binding to S100b was determined as 890 nM; in test [1], 1180 nM.
In the same order, the values of `CCCCc1nnc(OCC[C@H]2CCCCN2C)cc1-c1ccc(OC2CCCCC2)cc1` [Example 32, 3-Butyl-4-(4-cyclohexyloxy-phenyl)-6-[2-((R)-1-methyl-piperidin-2-yl)-ethoxy]-pyridazine dihydrochloride] are 2780 nM and 1780 nM.
In the same order, the values of `CCCCc1nnc(OCC[C@@H]2CCCCN2C)cc1-c1ccc(OC2CCCCC2)cc1` [Example 33, 3-butyl-4-(4-cyclohexyloxy-phenyl)-6-[2-((S)-1-methyl-piperidin-2-yl)-ethoxy]-pyridazine dihydrochloride] are 2630 nM and 1480 nM.
For `CCCCc1nnc(OCC2CN(C)CCO2)cc1-c1ccc(OC2CCCCC2)cc1` (centres unmarked) [Example 34, 2-[6-Butyl-5-(4-cyclohexyloxy-phenyl)-pyridazin-3-yloxymethyl]-4-methyl-morpholine dihydrochloride], in that order: 2930 nM and 2580 nM.
`CCCCc1nnc(O[C@H]2CC[C@H](NC)CC2)cc1-c1ccc(OC2CCCCC2)cc1` [Example 37, {4-[6-Butyl-5-(4-cyclohexyloxy-phenyl)-pyridazin-3-yloxy]-cyclohexyl}-methyl-amine dihydrochloride]: the IC50 at sRAGE binding to S100b came to 1870 nM; in test [1] it was 1650 nM.

For the origin of these results see patent US9045461B2, “Phenyl-heteroaryl derivatives and methods of use thereof” (TransTech Pharma, LLC, priority 2010, dated 2015).
